# Results from PubChem BioAssay AID602235 (The Scripps Research Institute Molecular Screening Center, 2012).
# Active and inactive are the calls of the source. How the calls were made is not given here.
# Target: Nuclear receptor coactivator 1 (Homo sapiens) (UniProt Q15788)
# Assay: inhibition of NCOA1 transcriptional coactivation in cells – cell-based, luciferase reporter, luminescence, dose response (AID 602235);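 further: cells transfected with pGL4.31 reporter plus pBIND-SRC1 vector; potency is for inhibitors that lower SRC1 reporter luminescence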
# Conditions: cell-based SRC1 luciferase reporter
# Sequence of Nuclear receptor coactivator 1 (Homo sapiens) (Q15788 whole entry, looked up): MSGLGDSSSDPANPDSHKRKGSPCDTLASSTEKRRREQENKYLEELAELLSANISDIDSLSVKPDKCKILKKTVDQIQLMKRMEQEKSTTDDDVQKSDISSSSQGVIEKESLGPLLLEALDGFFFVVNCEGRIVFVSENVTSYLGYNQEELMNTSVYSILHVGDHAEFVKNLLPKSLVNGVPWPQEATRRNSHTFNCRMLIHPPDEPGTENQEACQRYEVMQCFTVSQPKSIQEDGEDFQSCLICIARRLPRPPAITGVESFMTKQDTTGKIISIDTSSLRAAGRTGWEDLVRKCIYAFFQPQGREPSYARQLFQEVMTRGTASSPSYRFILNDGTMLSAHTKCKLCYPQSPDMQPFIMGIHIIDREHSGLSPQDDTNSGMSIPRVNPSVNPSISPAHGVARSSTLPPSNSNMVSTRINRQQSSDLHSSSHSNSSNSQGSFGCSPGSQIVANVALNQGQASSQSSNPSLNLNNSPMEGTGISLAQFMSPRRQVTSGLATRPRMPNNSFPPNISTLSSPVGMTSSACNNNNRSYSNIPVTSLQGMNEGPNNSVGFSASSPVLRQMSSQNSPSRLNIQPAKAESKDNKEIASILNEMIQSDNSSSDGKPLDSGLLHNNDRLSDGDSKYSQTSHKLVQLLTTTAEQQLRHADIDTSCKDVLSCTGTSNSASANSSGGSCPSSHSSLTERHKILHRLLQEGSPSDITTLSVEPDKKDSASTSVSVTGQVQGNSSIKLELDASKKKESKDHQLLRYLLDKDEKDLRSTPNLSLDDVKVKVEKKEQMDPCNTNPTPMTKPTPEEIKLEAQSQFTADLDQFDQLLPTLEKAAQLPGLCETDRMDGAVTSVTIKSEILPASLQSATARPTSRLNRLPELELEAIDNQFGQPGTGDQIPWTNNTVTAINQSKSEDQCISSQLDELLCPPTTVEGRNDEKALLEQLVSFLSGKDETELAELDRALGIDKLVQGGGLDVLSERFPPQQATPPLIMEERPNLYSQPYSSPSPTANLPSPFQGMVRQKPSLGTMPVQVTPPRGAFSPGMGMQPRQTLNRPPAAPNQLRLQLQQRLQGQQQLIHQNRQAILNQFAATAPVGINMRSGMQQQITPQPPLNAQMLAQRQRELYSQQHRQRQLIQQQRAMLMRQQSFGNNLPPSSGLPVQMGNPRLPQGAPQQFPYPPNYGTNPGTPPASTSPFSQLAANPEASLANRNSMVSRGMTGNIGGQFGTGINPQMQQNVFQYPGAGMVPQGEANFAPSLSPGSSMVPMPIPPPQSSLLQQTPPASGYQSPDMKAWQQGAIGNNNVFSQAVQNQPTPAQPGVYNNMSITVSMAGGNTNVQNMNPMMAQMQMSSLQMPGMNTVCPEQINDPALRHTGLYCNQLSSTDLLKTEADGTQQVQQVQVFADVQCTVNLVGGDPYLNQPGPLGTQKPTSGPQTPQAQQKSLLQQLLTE
row,SMILES,IC50
1,CC1CCCCN1c1ncnc2ccccc12 (stereo not drawn),> 35.9 µM (inactive)
2,O=C(N/N=C/c1cc([N+](=O)[O-])ccc1O)c1cccc(N2CCCC2=O)c1,inactive
3,CC(=O)N1CCN(c2ccc(Oc3ncnc4sccc34)cc2)CC1,inactive
4,COc1cc2c3c([nH]c2cc1F)C(=O)NCC3,9.54 µM
5,COc1ccc(OC)c(/C=C2\NC(=O)NC2=O)c1,7.42 µM
6,CC[C@@]1(O)C(=O)OCc2c1cc1n(c2=O)Cc2cc3c(NC(=O)CN)cccc3nc2-1,> 35.9 µM (inactive)
7,CC1(C)Cc2c(ccc3ccccc23)C(=O)N1,inactive
8,Cn1c(=O)c2[nH]c(COc3ccc(C(C)(C)C)cc3)nc2n(C)c1=O,inactive
9,COc1cccc(C2=CC(=O)CC(C)(C)C2)c1,inactive
10,COC(=O)N(NC(=O)C(O)(CCC(C)C)CCC(C)C)c1ccccc1,> 35.9 µM (inactive)
11,S=C(c1ccc(-c2ccccc2)cc1)N1CCOCC1,> 35.8 µM (inactive)
12,O=C(CCn1cnc(-c2ccccc2)c1-c1ccccc1)N/N=C/c1ccccc1O,inactive
13,O=C(OC(c1ccccc1)c1nccc2ccccc12)c1ccccc1 (stereo not drawn),> 11.9 µM (inactive)
14,O=C(Nc1nc(-c2ccccn2)cs1)c1cccc(S(=O)(=O)N2CCOCC2)c1,inactive
15,CCCc1cc(C(=O)N(C)CC(=O)Nc2ccc(OCC)c(OCC)c2)sc1C,> 35.9 µM (inactive)
16,CN(C)C(=O)c1ccc(-c2n[nH]c(=O)c3ccccc23)cc1,inactive
17,COc1cccc2c1C(=N)c1c(O)c3c(c(O)c1C2=O)CC(O)(C(C)=O)CC3OC1CC(N)C(O)C(C)O1 (stereo not drawn),> 35.9 µM (inactive)
18,O=C(c1ccncc1)N(Cc1cc2ccccc2[nH]c1=O)C1CCCCC1,inactive
19,Cc1ccccc1C(=O)/C(C#N)=N/Nc1c(C)n(C)n(-c2ccccc2)c1=O,inactive
20,Cc1c(/C(O)=C2/C(=O)C(=O)N(Cc3cccnc3)C2c2ccccn2)cnn1-c1ccccc1 (stereo not drawn),inactive
21,O=C(CCl)N1N=C(c2ccco2)CC1c1ccco1 (stereo not drawn),5.7 µM
22,O=C(CCl)N(c1ccccc1)C1CCS(=O)(=O)C1 (stereo not drawn),2.84 µM
23,COc1ccccc1N(C(=O)CCl)c1cn(C(C)=O)c2ccccc12,> 35.9 µM (inactive)
24,Cc1c2ccncc2cc2c1[nH]c1ccccc12,> 35.9 µM (inactive)
25,CCc1nc(N)nc(N)c1-c1ccc(Cl)c([N+](=O)[O-])c1,6.12 µM
26,CNc1ncnc(Sc2nc(N)nc3nc[nH]c23)c1[N+](=O)[O-],> 35.9 µM (inactive)

row,SMILES,IC50
1,CCN(CC)CCNC(=O)c1ccc(NC(=O)C2CCN(c3ncnc4sc(C)c(C)c34)CC2)cc1,5.4 µM
2,CC(=O)c1cc2c(C)cc(=O)oc2cc1O,> 35.9 µM (inactive)
3,O=C(NC(NC(=S)N1CCOCC1)C(Cl)(Cl)Cl)c1ccc(Cl)cc1 (stereo not drawn),> 35.9 µM (inactive)
4,CCN(c1ccccc1)S(=O)(=O)c1cc(C(=O)Nc2ccc(Br)cc2)ccc1F,> 12 µM (inactive)
5,CCOC(=O)c1c(NC(=O)C(C)N2CCN(C(=O)c3ccco3)CC2)sc2c1CCCC2 (stereo not drawn),inactive
6,O=C(N/N=C/c1ccccc1O)/C(=C/c1ccccc1)CCO,inactive
7,Cc1sc2ncnc(N3CCC(C(=O)Nc4cc(S(C)(=O)=O)ccc4Cl)CC3)c2c1C,inactive
8,CN(C)C=Nc1c(C(=O)c2ccccc2)sc2nccc(N(C)C)c12,8.53 µM
9,Cc1nc2c(-c3ccc(Cl)cc3)c(C)[nH]n2c(=O)c1Cc1ccccc1,9.38 µM
10,COc1ccc2c(=O)cc(-c3ccncc3)oc2c1OC,inactive
11,Cc1nc2c(-c3ccc(F)cc3)cnn2c(N)c1-c1ccccc1,inactive
12,COc1ccc(-c2cnc(N)nc2-c2ccc(OC)cc2O)cc1,inactive
13,CC1CCN(C(=O)c2scc3c2OCCO3)CC1,inactive
14,N#Cc1c(-c2ccccc2)c(C#N)c2nc3ccccc3n2c1N,> 35.9 µM (inactive)
15,COc1cc(OC)c2cc(C(=O)N/N=C/c3cccc(OC)c3O)[nH]c2c1,inactive
16,CN(Cc1cnc2nc(N)nc(N)c2n1)c1ccc(C(=O)N[C@@H](CCC(=O)O)C(=O)O)cc1,> 35.9 µM (inactive)
17,Cn1nc(C(F)(F)F)c(C#N)c1N1CCN(c2ccc(F)cc2)CC1,9.32 µM
18,COc1ccccc1NS(=O)(=O)c1cccc(NC(=O)c2cncc(Br)c2)c1,inactive
19,Cc1ccc(C)c(NC(=O)c2ccccc2NS(=O)(=O)c2cc([N+](=O)[O-])ccc2C)c1,4.81 µM
20,CCCCN(CCCC)c1ncnc2nc[nH]c12,inactive
21,CCN(CC(=O)Nc1ccc(NC(C)=O)cc1)C(=O)C1(c2ccc(Cl)cc2)CCC1,inactive
22,c1cnc2ccc(-n3ccnc3)cc2c1,> 35.9 µM (inactive)
23,Fc1ccc(CSc2nnc(-c3ccncc3)o2)cc1,6.06 µM
24,Cc1ccc(NC(=O)CCC(=O)N/N=C/c2ccc(O)cc2O)cc1,inactive
25,Cc1nn(CC(=O)N2CCN(c3cccc(C(F)(F)F)c3)CC2)c(=O)c2cccn12,inactive
26,Cc1ccc(S(=O)(=O)Nc2c(NC3CCCCC3)c3ccccc3oc2=O)c(C)c1,> 35.9 µM (inactive)

row,SMILES,IC50
1,CCCCC(=O)OCC(=O)C1(O)Cc2c(O)c3c(c(O)c2C(OC2CC(NC(=O)C(F)(F)F)C(O)C(C)O2)C1)C(=O)c1c(OC)cccc1C3=O (stereo not drawn),> 35.9 µM (inactive)
2,COc1cccc(/C=N/NC(=O)C(=O)Nc2ccccc2OC(F)(F)C(F)F)c1O,5.69 µM
3,Cn1nc(C(F)(F)F)c(C#N)c1N1CCN(c2ccccc2)CC1,7.05 µM
4,CC(NC(=O)COC(=O)c1cccs1)c1ccccc1 (stereo not drawn),> 35.9 µM (inactive)
5,CCn1c(Oc2cccc(Br)c2)nc2c1c(=O)n(C)c(=O)n2C,inactive
6,Cc1ccc(C(=O)Nc2sc(C)c(-c3ccccc3)c2C(N)=O)cc1[N+](=O)[O-],> 35.9 µM (inactive)
7,CCN(Cc1ccncc1)C(=O)CC1C(=O)NCCN1Cc1ccc(F)c(F)c1 (stereo not drawn),inactive
8,C=CCn1c(O)c(C(C)=NCc2cc(OC)cc(OC)c2)c(=O)[nH]c1=O,inactive
9,Cc1ccc(/C=C2\SC(=S)N(CCCC(=O)NC3CCCC3)C2=O)cc1,3.37 µM
10,Cc1ccc2occ(/C=N/NC(=O)[C@@H](N)Cc3ccccc3)c(=O)c2c1,8.08 µM
11,C=C1C(=O)[C@@]23C[C@H]4[C@@H]5[C@@]6(C)CCC[C@@]57[C@@H]2[C@@H](O)[C@@H]1C[C@H]3[C@H]7N4C6,3.71 µM
12,CCC(=O)c1ccc(Oc2nc3c(c(=O)n(C)c(=O)n3C)n2CC)cc1,7.62 µM
13,OCCN(CCO)CC(O)COc1ccc(C23CC4CC(CC(C4)C2)C3)cc1 (stereo not drawn),> 35.9 µM (inactive)
14,O=C1NCCc2c1[nH]c1ccc([N+](=O)[O-])cc21,inactive
15,O=C(Nc1cccc2c1CCCC2)c1cc([N+](=O)[O-])ccc1Cl,> 35.9 µM (inactive)
16,Cc1cc(C)nc(SCc2ccc(C(=O)N/N=C/c3cccc(O)c3O)cc2)n1,5.18 µM
17,S=C(Nc1ccccc1)Nc1ccc(OCc2ccc(Cl)cc2Cl)cc1,4.26 µM
18,O=C1CCC/C1=c1\s/c(=C/c2cccnc2)c(=O)n1-c1ccccc1,inactive
19,COc1ccc2c(c1)-c1c(ssc1=S)C(C)(C)N2C(=O)CSC1=NCCS1,inactive
20,COc1ccc(/C=C2\CC/C(=C\c3ccc(OC)c(OC)c3)C2=O)cc1OC,> 35.9 µM (inactive)
21,CCCCCOc1ccc(/C=C/c2c([N+](=O)[O-])c(=O)n(C)c(=O)n2C)cc1,9.08 µM
22,N#Cc1cc2ccncc2c2ccccc12,> 35.9 µM (inactive)
23,Fc1cccc(CSc2nnc3ccc(-c4ccncc4)nn23)c1,> 35.8 µM (inactive)
24,CN(Cc1cnc2nc(N)nc(N)c2n1)c1ccc(C(=O)NC(CCC(=O)O)C(=O)O)cc1 (stereo not drawn),> 35.9 µM (inactive)
25,Cc1ccc(N(Cc2cc(=O)[nH]c3ccccc23)C(=O)CCl)c(C)c1,5.31 µM
26,COc1cccc(/C=N/NC(=O)CNC(=O)C2COc3ccccc3O2)c1O (stereo not drawn),inactive

row,SMILES,IC50
1,CN1CCN(c2cccc3c2C(=O)c2ccccc2C3=O)CC1,> 35.9 µM (inactive)
2,O=C(CSc1nc(-c2cccs2)cc(C(F)(F)F)n1)Nc1cc(OCC(F)(F)C(F)F)cc([N+](=O)[O-])c1,> 35.9 µM (inactive)
3,O=C(CCCc1nc(-c2ccccc2Cl)no1)NC1CCCC1,inactive
4,CCCCC(CC)COCCCN=Cc1c(O)[nH]c(=S)[nH]c1=O (stereo not drawn),inactive
5,Cc1ccc2occ(/C=N/NC(=O)c3ccncc3)c(=O)c2c1,inactive
6,NNC(=O)c1cc2ccccc2cc1O,7.02 µM
7,c1ccc(-c2csc3ncnc(NCCN4CCOCC4)c23)cc1,inactive
8,COc1ccc(-n2cnc(N)c2C(=O)c2cccc([N+](=O)[O-])c2)cc1,inactive
9,COc1cccc(CNc2ncnc3ccc(-c4c(C)noc4C)cc23)c1,> 35.9 µM (inactive)
10,O=c1ccc2c(ccc3ncccc32)o1,inactive
11,O=C(Nc1c(-c2ccccc2)[nH][nH]c1=O)c1cccc(C(F)(F)F)c1,> 35.8 µM (inactive)
12,COc1ccc(Nc2ncnc3ccc(Br)cc23)c(OC)c1,2.44 µM
13,NS(=O)(=O)c1ccc(Nc2nc(-c3cccnc3)cs2)cc1,> 35.8 µM (inactive)
14,CCOc1cccc(/C=N/NC(=O)c2cc(C3CC3)[nH]n2)c1O,8.38 µM
15,OCCN1CCN(C(=S)c2ccc(-c3ccccc3)cc2)CC1,> 35.9 µM (inactive)
16,Cc1nc2ccccn2c1-c1ccnc(=S)[nH]1,6.33 µM
17,NC(=S)NN=Cc1ccc(OC(=O)COc2cc(Cl)c(Cl)cc2Cl)cn1,inactive
18,CCn1ccnc1CN(C)Cc1cn[nH]c1-c1ccc(F)cc1F,inactive
19,COc1ccc(CNc2ncc(-c3ccc(F)cc3)n2C)c2ccccc12,inactive
20,O=C(NC(=S)Nc1ccc(N2CCN(C(=O)c3ccccc3)CC2)cc1)c1cccs1,inactive
21,CC(C)n1c(-c2cccnc2)nc2cnccc21,inactive
22,CC(=O)c1cccc(NC(=O)COc2cc3oc(=O)c(CC(C)O)c(C)c3cc2Cl)c1 (stereo not drawn),> 35.9 µM (inactive)
23,Cc1ccc(NC(=O)C2CCN(c3ncnc4sc(C)c(C)c34)CC2)cc1S(=O)(=O)N(C)C,inactive
24,COc1ccc(NC(=O)CN(C)C(=O)C2(c3ccccc3)CCCC2)cc1,inactive
25,CCCS(=O)(=O)c1c(S(=O)(=O)CCC)c2c(C)cccn2c1C(=O)N/N=C/c1cc(O)cc(O)c1,inactive
